# Experimental data published in patent publication US20250075179A1, “METHODS FOR INCREASING VIRAL TRANSDUCTION OF CELLS” (Trustees of Dartmouth College, priority 2021, published 2025).
# Key:
# Format in all cases: cell-based
# [1] = system: human naïve B cells; test: Antibody class switching of naïve B cells after statin treatment, flow cytometry on Day 14; settings: 5 μM Rosuvastatin 48 hours, then culture to Day 14, versus PBS control, FIG. 3
# Experimental: As noted above, statins and other agents should not substantially reduce target cell activity and function. One function of naïve B cells is the ability to engage in antibody class switching. […] Specifically, human naïve B cells were isolated and cultured as described above in Example 1. Cells were plated at a density of 1×10^5 cells B cells per 6 well with 1×10^4 feeder cells plated the previous day. The dual culture was grown in the media and cytokine mix described above with or without 5 μM Rosuvastatin. After 48 hours of treatment, media was changed and cells were allowed to continue growing in the media and fresh cytokines. Every 3-4 days half of the media was removed and replaced with fresh media and cytokines at 1× concentration. Cells were trypsinized and split 1:5 at day 7. Subclass of expressed antibody was assessed by flow cytometry on Day 14.
# [2] = system: human naïve B cells; test: LDL-R antibody enhancement of lentiviral transduction of B cells in feeder culture, GFP by flow cytometry; settings: 48 hour 5 μM Rosuvastatin
# [3] = system: human naïve B cells
smiles,measurement,setting,value
CC(C)c1nc(N(C)S(C)(=O)=O)nc(-c2ccc(F)cc2)c1/C=C/[C@@H](O)C[C@@H](O)CC(=O)O [rosuvastatin],percent of B cells expressing the measured subclasses of antibody (class switching),[1],did not alter
same,Median Fluorescence Intensity,"[2]; GFP+ virus, feeder culture + 250 ng/ml IL-2, no LDL-R antibody",9.5
same,Median Fluorescence Intensity,"[2]; GFP+ virus, feeder culture + 250 ng/ml IL-2, with anti-mouse LDL-R antibody 2 μg/mL",10
same,Median Fluorescence Intensity,"[2]; GFP− virus (control virus), feeder culture + 250 ng/ml IL-2, no LDL-R antibody",3
same,"B cell transduction percentage, some replicates",[3],exceeding 90%
same,GFP expression compared to B cells not treated with the statin or not transduced,[3],substantially higher
same,"average B cell transduction percentage as measured by GFP expression, between technical replicates",[3],80%
same,transduction relative to B cells not incubated with rosuvastatin,[3],about 100 fold
